Results from US9072712B2, “Synergistic antimicrobial preparations containing chlorite and hydrogen peroxide” (priority 1999, dated 2015).
“Also recorded” adds a separate entry of the source.

Tests used:
[1] = system: S. haemolyticus keratitis in rabbits; experiment: In-vivo antimicrobial efficacy in infectious S. haemolyticus keratitis (corneal CFU)
Protocol: (§1) After 24 hours, all corneas were likewise infected, and the rabbits were divided randomly into three groups. The rabbits (five) of Group I then were treated with the chlorite-hydrogen peroxide formulation defined above as cleaning while wearing contact lenses (here termed “Bactericide”); the rabbits (five) of Group II were treated with commercially available 0.3% ofloxacin antibiotic ophthalmic solution; and the rabbits (two) of Group III were untreated to serve as a control. At 24 and 48 hours post infection, the rabbits underwent visual eye examination, photographic documentation and biomicroscopy. After 24 hours of treatment, three animals each from Groups I and II and one animal from Group III were sacrificed. The eyes were enucleated and an 8 mm disc of cornea was homogenized and plated onto growth media for microbial isolation and quantification. After 48 hours of treatment, the same procedure was followed for the remaining animals.

[2] = system: S. haemolyticus keratitis in rabbits; experiment: In-vivo clinical efficacy in infectious S. haemolyticus keratitis
Protocol: as §1

[3] = system: antibiotic-resistant strain of pseudomonas aeruginosa; experiment: In-vitro antimicrobial effect (log reduction); format: cell-based
normal human eyes = conditions: in the presence of sodium chlorite (400 ppm)
Description: Two drops of each formulation were then placed in the cul-de-sac of two normal human eyes. Upon instillation of the drops, the subjects were instructed to close their eyelids.

human eye = conditions: hydrogen peroxide without sodium chlorite (0.01 wt. %); cited from earlier work
[4] = system: antibiotic-resistant strain of staphylococcus haemolyticus; experiment: In-vitro antimicrobial effect (log reduction); format: cell-based
[5] = 24 hours after infection (before treatment)

## CC1COc2c(N3CCN(C)CC3)c(F)cc3c(=O)c(C(=O)O)cn1c23 (stereo not drawn) [0.3% Ofloxacin, ofloxacin]
[1]; 24 hours post treatment
  bacteria isolated from 8 mm disc of cornea, Average: 13,000 CFU
  bacteria isolated from 8 mm disc of cornea, individual animals: iii) 11,000 CFU; also recorded: i) 23,000 CFU; also recorded: ii) 5,000 CFU
[1]; 48 hours post treatment
  bacteria isolated from 8 mm disc of cornea, Average: 5,100 CFU
  bacteria isolated from 8 mm disc of cornea, individual animals: i) 5,000 CFU; also recorded: ii) 5,200 CFU
[2]; [5]
  corneal edema score: corneal edema (+2)
  hyperemia score: hyperemia (+2)
  inflammation score: inflammation(+2)
[2]; 24 hours after treatment
  corneal edema score: corneal edema (+2)
  hyperemia score: hyperemia (+2)
  inflammation score: inflammation(+2)
[2]; 48 hours after treatment
  corneal edema score: corneal edema (+1)
  hyperemia score: hyperemia (+1)
  inflammation score: inflammation(+1)

## OO [H202 alone, hydrogen peroxide]
[3]; 200 ppm, 1 hour
  Log Reduction: 0.01
[3]; 200 ppm, 2 hours
  Log Reduction: 0.54
Normal human eyes
  hydrogen peroxide levels very well tolerated by human eyes: up to 500 ppm
Human eye
  upper limit of human ocular tolerability: about 100 ppm
[4]; 200 ppm, 1 hour
  Log Reduction: 0.20
[4]; 200 ppm, 2 hours
  Log Reduction: 0.23

## sodium chlorite [NaClO2 alone]
[3]; 400 ppm, 1 hour
  Log Reduction: 0.351
[3]; 400 ppm, 1 hour, listed as sodium chlorite
  Log Reduction: 0.35
[3]; 400 ppm, 2 hours
  Log Reduction: 1.35
[4]; 400 ppm, 1 hour
  Log Reduction: 0.11
[4]; 400 ppm, 2 hours
  Log Reduction: 1.01
